These results are taken from ChEMBL document CHEMBL1126936, “Synthesis and antitumor activity of 10-propargyl-10-deazaaminopterin” (J Med Chem, 1993).

The species entered for experiment [1] is Mus musculus. Kind of experiment: (§1) Inhibition of growth in L1210 murine leukemia cells in culture expressed as IC50 (nM). Format: functional, cell-based.
The species entered for experiment [2] is Mus musculus. Kind of experiment: (§2) Transport influx which is determined by competitive binding for the transport protein; expressed as Ki (uM). Format: functional, organism-based.
Experiment [3] deals with T1, Dihydrofolate reductase (Mus musculus, UniProt P00375).
T1 sequence (P00375 whole entry): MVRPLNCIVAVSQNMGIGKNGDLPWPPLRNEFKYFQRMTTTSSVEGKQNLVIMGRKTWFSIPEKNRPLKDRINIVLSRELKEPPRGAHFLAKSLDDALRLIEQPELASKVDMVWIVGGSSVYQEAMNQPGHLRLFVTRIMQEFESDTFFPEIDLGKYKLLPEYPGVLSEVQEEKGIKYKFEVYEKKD
Kind of experiment: Inhibition of Dihydrofolate reductase (DHFR) enzyme derived from L1210 cells expressed as Ki (pM). Format: cell-based.

In experiment [4] the test system is Mus musculus. As to the kind of experiment: Average E0771 solid murine mammary tumor volume in BDF1 female mice (n=5) at 24 mg/kg at 14 day post treatment point. Format: functional.
For experiment [5], the system named is Mus musculus. As to the kind of experiment: Average E0771 solid murine mammary tumor volume in BDF1 female mice (n=3) at 36 mg/kg at 14 day post treatment point.
Experiment [6] concerns Mus musculus. As to the kind of experiment: Average E0771 solid murine mammary tumor volume in BDF1 female mice (n=5) at 36 mg/kg at 14 day post treatment point; Expressed as % T/C. Format: functional.
Experiment [7] has as its system Mus musculus. Kind of experiment: Average E0771 solid murine mammary tumor volume in BDF1 female mice (n=5) at 36 mg/kg at 10 day post treatment point. Format: functional.
Experiment [8] deals with Mus musculus. As to the kind of experiment: Average E0771 solid murine mammary tumor volume in BDF1 female mice (n=5) at 24 mg/kg at 21 day post treatment point; Expressed as % T/C. Format: functional.
Experiment [9] deals with Mus musculus. As to the kind of experiment: Average E0771 solid murine mammary tumor volume in BDF1 female mice (n=5) at 24 mg/kg at 21 day post treatment point. Format: functional.
The test system of experiment [10] is Mus musculus. As to the kind of experiment: Average E0771 solid murine mammary tumor volume in BDF1 female mice (n=3) at 36 mg/kg at 21 day post treatment point.
Experiment [11] relates to Mus musculus. As to the kind of experiment: Average E0771 solid murine mammary tumor volume in BDF1 female mice (n=5) at 24 mg/kg at 10 day post treatment point. Format: functional.
The subject of experiment [12] is Mus musculus. As to the kind of experiment: Average E0771 solid murine mammary tumor volume in BDF1 female mice (n=5) at 24 mg/kg at 14 day post treatment point; Expressed as % T/C. Format: functional.
The subject of experiment [13] is Mus musculus. As to the kind of experiment: Average E0771 solid murine mammary tumor volume in BDF1 female mice (n=5) at 24 mg/kg at 10 day post treatment point; Expressed as % T/C. Format: functional.
The test system of experiment [14] is Mus musculus. As to the kind of experiment: Average E0771 solid murine mammary tumor volume in BDF1 female mice (n=5) at 36 mg/kg at 21 day post treatment point; Expressed as % T/C. Format: functional.
For experiment [15], the system named is Mus musculus. As to the kind of experiment: Average E0771 solid murine mammary tumor volume in BDF1 female mice (n=5) at 36 mg/kg at 10 day post treatment point; Expressed as % T/C. Format: functional.
Experiment [16] deals with L1210. The experiment is described as §1. Conditions: Mus musculus. Format: functional, cell-based.
Experiment [17] concerns the target L1210. The description is as §2. Format: functional, cell-based, Mus musculus.
Experiment [18] has as its system Mus musculus. As to the kind of experiment: Average E0771 solid murine mammary tumor volume in BDF1 female mice (n=5) at 6 mg/kg at 21 day post treatment point; Expressed as % T/C. Format: functional.
Experiment [19] concerns Mus musculus. Kind of experiment: Average E0771 solid murine mammary tumor volume in BDF1 female mice (n=5) at 9 mg/kg at 14 day post treatment point. Format: functional.
Experiment [20] deals with Mus musculus. As to the kind of experiment: Average E0771 solid murine mammary tumor volume in BDF1 female mice (n=5) at 6 mg/kg at 14 day post treatment point; Expressed as % T/C. Format: functional.
The test system of experiment [21] is Mus musculus. As to the kind of experiment: Average E0771 solid murine mammary tumor volume in BDF1 female mice (n=5) at 9 mg/kg at 21 day post treatment point. Format: functional.
The test system of experiment [22] is Mus musculus. As to the kind of experiment: Average E0771 solid murine mammary tumor volume in BDF1 female mice (n=5) at 9 mg/kg at 10 day post treatment point. Format: functional.
Experiment [23] has as its system Mus musculus. Kind of experiment: Average E0771 solid murine mammary tumor volume in BDF1 female mice (n=5) at 6 mg/kg at 10 day post treatment point. Format: functional.
The test system of experiment [24] is Mus musculus. As to the kind of experiment: Average E0771 solid murine mammary tumor volume in BDF1 female mice (n=5) at 3 mg/kg at 21 day post treatment point. Format: functional.
The subject of experiment [25] is Mus musculus. As to the kind of experiment: Average E0771 solid murine mammary tumor volume in BDF1 female mice (n=5) at 3 mg/kg at 10 day post treatment point. Format: functional.
In experiment [26] the test system is Mus musculus. As to the kind of experiment: Average E0771 solid murine mammary tumor volume in BDF1 female mice (n=5) at 3 mg/kg at 14 day post treatment point; Expressed as % T/C. Format: functional.
Experiment [27] has as its system Mus musculus. Kind of experiment: Average E0771 solid murine mammary tumor volume in BDF1 female mice (n=5) at 9 mg/kg at 14 day post treatment point; Expressed as % T/C. Format: functional.
Experiment [28] has as its system Mus musculus. As to the kind of experiment: Average E0771 solid murine mammary tumor volume in BDF1 female mice (n=5) at 3 mg/kg at 10 day post treatment point; Expressed as % T/C. Format: functional.
Experiment [29] has as its system Mus musculus. As to the kind of experiment: Average E0771 solid murine mammary tumor volume in BDF1 female mice (n=5) at 3 mg/kg at 14 day post treatment point. Format: functional.
In experiment [30] the test system is Mus musculus. As to the kind of experiment: Average E0771 solid murine mammary tumor volume in BDF1 female mice (n=5) at 6 mg/kg at 10 day post treatment point; Expressed as % T/C. Format: functional.
Experiment [31] has as its system Mus musculus. Kind of experiment: Average E0771 solid murine mammary tumor volume in BDF1 female mice (n=5) at 6 mg/kg at 14 day post treatment point. Format: functional.
Experiment [32] has as its system Mus musculus. Kind of experiment: Average E0771 solid murine mammary tumor volume in BDF1 female mice (n=5) at 6 mg/kg at 21 day post treatment point. Format: functional.
Experiment [33] concerns Mus musculus. Kind of experiment: Average E0771 solid murine mammary tumor volume in BDF1 female mice (n=5) at 9 mg/kg at 10 day post treatment point; Expressed as % T/C. Format: functional.
For experiment [34], the system named is Mus musculus. Kind of experiment: Average E0771 solid murine mammary tumor volume in BDF1 female mice (n=5) at 9 mg/kg at 21 day post treatment point; Expressed as % T/C. Format: functional.
The subject of experiment [35] is Mus musculus. As to the kind of experiment: Average E0771 solid murine mammary tumor volume in BDF1 female mice (n=5) at 3 mg/kg at 21 day post treatment point; Expressed as % T/C. Format: functional.

pIC50, pKi: −log10 of the molar value. A value given as a limit tells only on which side of the number the result lay.

Turning to `CC(Cc1cnc2nc(N)nc(N)c2n1)c1ccc(C(=O)NC(CCC(=O)O)C(=O)O)cc1` (configuration not stated), in experiment [1], the pIC50 was 8.87. Moreover, the results for the negative logarithm of the Ki (pKi) in [2] and in experiment [3] were 6.02 and 11.39, respectively.

`Nc1nc(N)c2nc(CCc3ccc(C(=O)N[C@@H](CCC(=O)O)C(=O)O)cc3)cnc2n1`: the pIC50 in experiment [1] is 8.74. The negative logarithm of the Ki (pKi) was 6.05 in experiment [2] and 11.44 in [3].

In the case of `C#CCC(Cc1cnc2nc(N)nc(N)c2n1)c1ccc(C(=O)NC(CCC(=O)O)C(=O)O)cc1` (configuration not stated), the pIC50 in [1] was 8.70. The Average tumor volume was 19 mm**3 in experiment [4]; 6 mm**3 in [5]; 48 mm**3 in experiment [7]; 204 mm**3 in experiment [9]; 21 mm**3 in experiment [10]; 62 mm**3 in [11]. Further, the T/C is recorded as 1% in experiment [6]; 10% in experiment [8]; 2% in experiment [12]; 47% in experiment [13]; 1% in experiment [14]; 31% in experiment [15]. The pKi was 6.35 in [2] and 10.74 in experiment [3].

As for `CCCCCC(Cc1cnc2nc(N)nc(N)c2n1)c1ccc(C(=O)NC(CCC(=O)O)C(=O)O)cc1` (configuration not stated), in experiment [16], the pIC50 was 6.60. The pKi in experiment [3] is under 9.00; in experiment [17], 6.00.

On to `CCCC(Cc1cnc2nc(N)nc(N)c2n1)c1ccc(C(=O)NC(CCC(=O)O)C(=O)O)cc1` (configuration not stated), for which, in experiment [16], the pIC50 was 8.69. The results for the pKi in experiment [3] and in experiment [17] were 11.04 and 5.96, respectively.

As to `CN(Cc1cnc2nc(N)nc(N)c2n1)c1ccc(C(=O)N[C@@H](CCC(=O)O)C(=O)O)cc1` [METHOTREXATE], the pIC50 in experiment [16] was 8.02. In addition, the T/C in [18] stood at 18%; in experiment [20], 2%; in experiment [26] it was 15%; in experiment [27] it was 2%; in experiment [28], 86%; in experiment [30], 26%. In addition, the T/C was found to be 3% in experiment [33], 15% in experiment [34] and 61% in experiment [35]. The Average tumor volume is 19 mm**3 in experiment [19]; 310 mm**3 in [21]; 4 mm**3 in experiment [22]; 34 mm**3 in [23]; 1260 mm**3 in experiment [24]; 113 mm**3 in experiment [25]. In addition, the results for the Average tumor volume in [29], in experiment [31] and in experiment [32] were 187 mm**3, 19 mm**3 and 382 mm**3, respectively. The compound also showed a pKi in experiment [2] of 5.38.

As usually defined, the pIC50 is the negative decadic logarithm of the IC50, by convention in mol/L. The term pKi denotes the Ki on a negative log10 scale, so that one unit is a factor of ten. The low end stands for a large Ki, the high end for a small Ki. Usually T/C stands for the result in the treated group divided by that in the control group, in per cent.
